These results are taken from PMC2921628 (Biochemistry, 2010).

The structures appear in SMILES notation. Where two headings read alike, the source gives them in different places.

Data set [1] deals with T1, cdk5/p25 (Homo sapiens, UniProt Q00535). Description: Initial velocity kinetic analysis of cdk5/p25-catalyzed H1P phosphorylation. The class given is biochemical.
For data set [2] the following is noted: cited from earlier work.
For data set [3], the target named is T1, cdk5/p25. Description: Influence of D2O on inhibitor. The class given is biochemical. The settings on record: 10 µM ATP, saturating H1P; data not shown.
In data set [4] the target is T1, cdk5/p25. Description: Inhibition studies with substrate analogues and product ADP at 0.2 mM MgCl2. Particulars: 0.2 mM Mg^2+. The class given is biochemical.
Where [5] appears, read: versus variable substrate ATP (H1P fixed).
The mark [6] stands for this setting: versus variable substrate H1P (ATP fixed).

T1 sequence (Q00535 whole entry, species assumed): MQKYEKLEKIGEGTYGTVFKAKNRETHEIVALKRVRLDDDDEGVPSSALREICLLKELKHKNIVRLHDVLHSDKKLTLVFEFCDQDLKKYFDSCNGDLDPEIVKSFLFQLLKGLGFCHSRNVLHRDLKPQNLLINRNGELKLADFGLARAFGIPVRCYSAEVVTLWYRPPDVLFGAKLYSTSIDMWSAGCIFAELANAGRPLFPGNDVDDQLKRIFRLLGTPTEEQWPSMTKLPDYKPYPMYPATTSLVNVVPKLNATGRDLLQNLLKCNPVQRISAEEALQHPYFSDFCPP
T1 sequence (Q15078 99-307 partner limits assumed, species assumed): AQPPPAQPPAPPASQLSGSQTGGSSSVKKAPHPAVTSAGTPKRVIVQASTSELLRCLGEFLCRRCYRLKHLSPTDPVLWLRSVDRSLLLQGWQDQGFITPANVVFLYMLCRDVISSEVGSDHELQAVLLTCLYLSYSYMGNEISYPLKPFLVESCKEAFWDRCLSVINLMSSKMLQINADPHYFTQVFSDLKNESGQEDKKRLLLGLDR

At cdk5/p25 [1] (KATP (KMgATP), 2.5 mM free Mg^2+), `Nc1ncnc2c1ncn2[C@@H]1O[C@H](COP(=O)(O)OP(=O)(O)OP(=O)(O)O)[C@@H](O)[C@H]1O` [ATP, Adenosine 5’-triphosphate] displayed a Kd of 6.1 ± 1.5 µM. In data set [2], the “pKa for protonation of the γ-phosphate of ATP” value is reported as 4.6.

`Nc1ncnc2c1ncn2[C@@H]1O[C@H](COP(=O)(O)O)[C@@H](O)[C@H]1O` [AMP]: on cdk5/p25 [3], the “dissociation constant from E:H1P:AMP, lowering in 85% D2O compared with water” value is listed as “approximately 1.5 fold”. In addition, the “enzyme forms that inhibitor binds” value at cdk5/p25 [4] was “binds to both E and E:B complex”. The mechanism of inhibition entry on cdk5/p25 [4] (setting [5]) is on record as “competitive”; on cdk5/p25 [4] (setting [6]), “noncompetitive”.

For `Nc1ncnc2c1ncn2[C@@H]1O[C@H](COP(=O)(O)OP(=O)(O)O)[C@@H](O)[C@H]1O` [ADP], the mechanism of inhibition result on cdk5/p25 [4] (setting [5]) is listed as “competitive”; at cdk5/p25 [4] (setting [6]), “noncompetitive”.

Regarding `Nc1ncnc2c1ncn2[C@@H]1O[C@H](COP(=O)(O)OP(=O)([O-])OP(=O)([O-])O)[C@@H](O)[C@H]1O.[Mg+2]` [MgATP], the hill coefficient at cdk5/p25 [1] (MgATP dependence of (kcat)H1P at 0.2 mM free Mg^2+ (Figure 1B)) is 1.8 ± 0.1. Moreover, the Kd at cdk5/p25 [1] (read-out: KATP (KMgATP), 0.2 mM free Mg^2+) amounted to 60 ± 20 µM; at cdk5/p25 [1] (read-out: KATP (KMgATP), 2.5 mM free Mg^2+), 6.1 ± 1.5 µM. For the same molecule, the “dissociation constant of MgATP” value in data set [2] (used to calculate MgATP and free Mg^2+ concentrations) was 14.3 µM.
